According to publication PMC10363032 (Cancer Chemotherapy and Pharmacology, 2023):

Key:
[1] = safety and tolerability, adverse events (CTCAE version 4.03) in patients
Protocol: (§1) Safety was appraised throughout the study by the assessment of clinical and laboratory adverse events (AEs; graded by Common Terminology Criteria for Adverse Events [CTCAE], version 4.03), physical examination, and evaluation of vital signs and laboratory data (clinical chemistry and hematology).
(§2) Patients were evaluated according to the treatment received.

clinical = conditions: human, in vivo, 225 mg
Protocol: PK parameters were derived using non-compartmental methods with Phoenix® WinNonlin® version 6.4 (Certara, LP, Princeton, NJ, USA). All descriptive and inferential statistical computations were performed using SAS® version 9.1 (SAS Institute, Cary, NC, USA).

CYP3A = conditions: read-out: IC50, reversible inhibition of CYP3A; ref AstraZeneca, data on file, 2020; 16; cited from earlier work
[2] = human, in vivo
Protocol: as §1, §2

Wee1 = test system: Wee1; parameters: method as in PMID 25964244, PMID 19887545; conditions: read-out: half-maximal inhibitory concentration (IC50); cited from earlier work
[3] = after receiving adavosertib, all 30 patients
[4] = probe cocktail plus adavosertib 26 patients, adavosertib alone on days 1 and 2, 30
[5] = probe cocktail plus adavosertib n = 26, adavosertib alone n = 30

C=CCn1c(=O)c2cnc(Nc3ccc(N4CCN(C)CC4)cc3)nc2n1-c1cccc(C(C)(C)O)n1 [adavosertib]
Dizziness (causally related), grade ≥3 ([1]; Total (n = 30)): 0 Number of patients (%) | Fatigue (causally related), any grade ([1]; Total (n = 30)): 1 (3.3) Number of patients (%) | Fatigue (causally related), grade ≥3 ([1]; Total (n = 30)): 0 Number of patients (%) | Flushing (causally related), any grade ([1]; Total (n = 30)): 1 (3.3) Number of patients (%) | Flushing (causally related), grade ≥3 ([1]; Total (n = 30)): 0 Number of patients (%) | Gastrointestinal disorders (causally related), any grade ([1]; Total (n = 30)): 17 (56.7) Number of patients (%) | Gastrointestinal disorders (causally related), grade ≥3 ([1]; Total (n = 30)): 3 (10.0) Number of patients (%) | General disorders and administration site conditions (causally related), any grade ([1]; Total (n = 30)): 1 (3.3) Number of patients (%) | General disorders and administration site conditions (causally related), grade ≥3 ([1]; Total (n = 30)): 0 Number of patients (%) | Hypokalemia (causally related), any grade ([1]; Total (n = 30)): 1 (3.3) Number of patients (%) | Hypokalemia (causally related), grade ≥3 ([1]; Total (n = 30)): 1 (3.3) Number of patients (%) | Investigations (causally related), any grade ([1]; Total (n = 30)): 4 (13.3) Number of patients (%) | Investigations (causally related), grade ≥3 ([1]; Total (n = 30)): 0 Number of patients (%) | Metabolism and nutrition disorders (causally related), any grade ([1]; Total (n = 30)): 3 (10.0) Number of patients (%) | Metabolism and nutrition disorders (causally related), grade ≥3 ([1]; Total (n = 30)): 2 (6.7) Number of patients (%) | Muscle spasms (causally related), any grade ([1]; Total (n = 30)): 1 (3.3) Number of patients (%) | Muscle spasms (causally related), grade ≥3 ([1]; Total (n = 30)): 0 Number of patients (%) | Musculoskeletal and connective tissue disorders (causally related), any grade ([1]; Total (n = 30)): 1 (3.3) Number of patients (%) | Musculoskeletal and connective tissue disorders (causally related), grade ≥3 ([1]; Total (n = 30)): 0 Number of patients (%) | Nasal ulcer (causally related), any grade ([1]; Total (n = 30)): 1 (3.3) Number of patients (%) | Nasal ulcer (causally related), grade ≥3 ([1]; Total (n = 30)): 0 Number of patients (%) | Nausea (causally related), any grade ([1]; Total (n = 30)): 6 (20.0) Number of patients (%) | Nausea (causally related), grade ≥3 ([1]; Total (n = 30)): 1 (3.3) Number of patients (%) | Nervous system disorders (causally related), any grade ([1]; Total (n = 30)): 2 (6.7) Number of patients (%) | Nervous system disorders (causally related), grade ≥3 ([1]; Total (n = 30)): 0 Number of patients (%) | Neutropenia (causally related), any grade ([1]; Total (n = 30)): 2 (6.7) Number of patients (%) | Neutropenia (causally related), grade ≥3 ([1]; Total (n = 30)): 2 (6.7) Number of patients (%) | Pancreatitis (causally related), any grade ([1]; Total (n = 30)): 1 (3.3) Number of patients (%) | Pancreatitis (causally related), grade ≥3 ([1]; Total (n = 30)): 1 (3.3) Number of patients (%) | Renal and urinary disorders (causally related), any grade ([1]; Total (n = 30)): 1 (3.3) Number of patients (%) | Renal and urinary disorders (causally related), grade ≥3 ([1]; Total (n = 30)): 1 (3.3) Number of patients (%) | Respiratory, thoracic and mediastinal disorders (causally related), any grade ([1]; Total (n = 30)): 1 (3.3) Number of patients (%) | Respiratory, thoracic and mediastinal disorders (causally related), grade ≥3 ([1]; Total (n = 30)): 0 Number of patients (%) | Stomatitis (causally related), any grade ([1]; Total (n = 30)): 1 (3.3) Number of patients (%) | Stomatitis (causally related), grade ≥3 ([1]; Total (n = 30)): 0 Number of patients (%) | Thrombocytopenia (causally related), any grade ([1]; Total (n = 30)): 2 (6.7) Number of patients (%) | Thrombocytopenia (causally related), grade ≥3 ([1]; Total (n = 30)): 0 Number of patients (%) | Vascular disorders (causally related), any grade ([1]; Total (n = 30)): 1 (3.3) Number of patients (%) | Vascular disorders (causally related), grade ≥3 ([1]; Total (n = 30)): 0 Number of patients (%) | Vomiting (causally related), any grade ([1]; Total (n = 30)): 7 (23.3) Number of patients (%) | Vomiting (causally related), grade ≥3 ([1]; Total (n = 30)): 1 (3.3) Number of patients (%) | Weight decreased (causally related), any grade ([1]; Total (n = 30)): 3 (10.0) Number of patients (%) | Weight decreased (causally related), grade ≥3 ([1]; Total (n = 30)): 0 Number of patients (%) | patients with treatment-related vomiting ([1]; adavosertib alone n = 30): 20.0% | patients reporting serious AEs (SAEs) considered related to adavosertib ([1]; adavosertib alone on days 1 and 2, two SAEs: acute kidney injury and pancreatitis, led to discontinuation): One | patients with treatment-related adverse events [1, 3]: 63% | patients with treatment-related adverse events grade ≥ 3 [1, 3]: 20% | patients with CTCAE grade ≥ 3 acute kidney injury ([1]; any cause): 3.3% | patients with CTCAE grade ≥ 3 dehydration ([1]; any cause): 3.3% | patients with CTCAE grade ≥ 3 diarrhea ([1]; any cause): 10.0% | patients with CTCAE grade ≥ 3 hypokalemia ([1]; any cause): 3.3% | patients with CTCAE grade ≥ 3 hypoxia ([1]; any cause): 3.3% | patients with CTCAE grade ≥ 3 nausea ([1]; any cause): 3.3% | patients with CTCAE grade ≥ 3 necrotizing soft-tissue infection ([1]; any cause): 3.3% | patients with CTCAE grade ≥ 3 neutropenia ([1]; any cause): 3.3% | patients with CTCAE grade ≥ 3 pancreatitis ([1]; any cause): 3.3% | patients with CTCAE grade ≥ 3 small-intestinal obstruction ([1]; any cause): 3.3% | patients with CTCAE grade ≥ 3 thrombocytopenia ([1]; any cause): 3.3% | patients with CTCAE grade ≥ 3 vomiting ([1]; any cause): 3.3% | patients who experienced AEs ([1]; cocktail alone 33 patients, probe cocktail plus adavosertib 26, adavosertib alone on days 1 and 2, 30): 53.3% | patients who discontinued treatment because of AEs ([1]; grade 3 diarrhea (related to adavosertib), grade 3 small-bowel obstruction (not related)): Two | patients with adverse events of CTCAE grade ≥ 3 [1, 4]: 16.7% | patients with treatment-related AEs [1, 4]: 36.7% | patients with treatment-related diarrhea [1, 5]: 33.3% | patients with treatment-related nausea [1, 5]: 10.0% | CLss/F, arithmetic mean (SD) (clinical): 38.0 (12.11) L/h | CLss/F, median (minimum, maximum) (clinical): 36.9 (24.3, 63.5) L/h | Tmax (clinical): 3 h | intra-patient variability for AUC0–12 and Cmax (clinical): < 10% | AUC(0-t) (clinical; AUC0–12, arithmetic mean (SD)): 12.7 µM·h | AUC(0-t) (clinical; AUC0–12, geometric mean): 12.2 µM·h | AUC(0-t) (clinical; AUC0–12, median (minimum, maximum)): 12 µM·h | Cmax (clinical; arithmetic mean (SD)): 1490 nM | Cmax (clinical; geometric mean): 1440 nM | Cmax (clinical; median (minimum, maximum)): 1420 nM | IC50 (CYP3A): 14 µM | AEs with an outcome of death [2]: No AEs with an outcome of death were observed | IC50 (Wee1): 5.2 nM
